System: 898857-211-R-J1-PDC complex spheroids, growth % test/control
Experiment: Anticancer human tumor 898857-211-R-J1-PDC patient-derived melanoma cell line growth inhibition [RAS]
Settings: for IC50: curve of first compound; for viability, T/C: stronger effect = lower value
How it was run: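 Agents were tested in combination matrices in half-log decrements from a top concentration at or near clinical Cmax (10 microM if undetermined). Targets were multi-cell spheroids of tumour lines plus HUVEC and MSC stromal cells.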

[1] = second compound 0.000949 µM, first compound 0.0316 µM
[2] = second compound 0.000949 µM, first compound 0.1 µM
[3] = second compound 0.000949 µM, first compound 0.316 µM
[4] = second compound 0.000949 µM, first compound 1 µM
[5] = second compound 0.000949 µM, first compound 3.16 µM
[6] = second compound 0.000949 µM, first compound 10 µM
[7] = second compound 0.003 µM, first compound 0.0316 µM
[8] = second compound 0.003 µM, first compound 0.1 µM
[9] = second compound 0.003 µM, first compound 0.316 µM
[10] = second compound 0.003 µM, first compound 1 µM
[11] = second compound 0.003 µM, first compound 3.16 µM
[12] = second compound 0.003 µM, first compound 10 µM
[13] = second compound 0.00949 µM, first compound 0.0316 µM
[14] = second compound 0.00949 µM, first compound 0.1 µM
[15] = second compound 0.00949 µM, first compound 0.316 µM
[16] = second compound 0.00949 µM, first compound 1 µM
[17] = second compound 0.00949 µM, first compound 3.16 µM
[18] = second compound 0.00949 µM, first compound 10 µM
[19] = second compound 0.03 µM, first compound 0.0316 µM
[20] = second compound 0.03 µM, first compound 0.1 µM
[21] = second compound 0.03 µM, first compound 0.316 µM
[22] = second compound 0.03 µM, first compound 1 µM
[23] = second compound 0.03 µM, first compound 3.16 µM
[24] = second compound 0.03 µM, first compound 10 µM
[25] = second compound 0.0949 µM, first compound 0.0316 µM
[26] = second compound 0.0949 µM, first compound 0.1 µM
[27] = second compound 0.0949 µM, first compound 0.316 µM
[28] = second compound 0.0949 µM, first compound 1 µM
[29] = second compound 0.0949 µM, first compound 3.16 µM
[30] = second compound 0.0949 µM, first compound 10 µM
[31] = second compound 0.3 µM, first compound 0.0316 µM
[32] = second compound 0.3 µM, first compound 0.1 µM
[33] = second compound 0.3 µM, first compound 0.316 µM
[34] = second compound 0.3 µM, first compound 1 µM
[35] = second compound 0.3 µM, first compound 3.16 µM
[36] = second compound 0.3 µM, first compound 10 µM
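Further: spheroids exposed to compound for seven days before readout.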
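Wherever viability, T/C is given: 100% = DMSO vehicle control wells.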

## Cc1nc(N2CCC3(CC2)COC(C)C3N)c(CO)nc1Sc1ccnc(N)c1Cl (stereo unspecified) + CCn1c(-c2cccnc2C(C)OC)c2c3cc(ccc31)N1CCOC(CC(NC(=O)C(C(C)C)N(C)C(=O)C3(F)CCN(C(=O)C#CC(C)(C)N(C)C)CC3)C(=O)N3CCCC(N3)C(=O)OCC(C)(C)C2)C1
Second compound 0.000949 µM
  IC50: > 10 µM
Second compound 0.003 µM
  IC50: > 10 µM
Second compound 0.00949 µM
  IC50: > 10 µM
Second compound 0.03 µM
  IC50: > 10 µM
Second compound 0.0949 µM
  IC50: > 10 µM
Second compound 0.3 µM
  IC50: > 10 µM
[1]
  viability, T/C: 94.5%
[2]
  viability, T/C: 94.9%
[3]
  viability, T/C: 103%
[4]
  viability, T/C: 98.8%
[5]
  viability, T/C: 93.1%
[6]
  viability, T/C: 90.6%
[7]
  viability, T/C: 98.6%
[8]
  viability, T/C: 98.5%
[9]
  viability, T/C: 97.6%
[10]
  viability, T/C: 95.7%
[11]
  viability, T/C: 113%
[12]
  viability, T/C: 93.4%
[13]
  viability, T/C: 99.7%
[14]
  viability, T/C: 104%
[15]
  viability, T/C: 107%
[16]
  viability, T/C: 96%
[17]
  viability, T/C: 92.3%
[18]
  viability, T/C: 85.1%
[19]
  viability, T/C: 93.2%
[20]
  viability, T/C: 90.2%
[21]
  viability, T/C: 96.8%
[22]
  viability, T/C: 109%
[23]
  viability, T/C: 89.5%
[24]
  viability, T/C: 92%
[25]
  viability, T/C: 90.6%
[26]
  viability, T/C: 100%
[27]
  viability, T/C: 87.7%
[28]
  viability, T/C: 96.3%
[29]
  viability, T/C: 92%
[30]
  viability, T/C: 88.6%
[31]
  viability, T/C: 85.2%
[32]
  viability, T/C: 82.7%
[33]
  viability, T/C: 77.4%
[34]
  viability, T/C: 76.9%
[35]
  viability, T/C: 74.2%
[36]
  viability, T/C: 69.5%

## NC1c2ccccc2OC12CCN(c1cnc3c(N4CCCc5ncccc54)n[nH]c3n1)CC2 (stereo unspecified) + CCn1c(-c2cccnc2C(C)OC)c2c3cc(ccc31)N1CCOC(CC(NC(=O)C(C(C)C)N(C)C(=O)C3(F)CCN(C(=O)C#CC(C)(C)N(C)C)CC3)C(=O)N3CCCC(N3)C(=O)OCC(C)(C)C2)C1
Second compound 0.000949 µM
  IC50: > 10 µM
Second compound 0.003 µM
  IC50: > 10 µM
Second compound 0.00949 µM
  IC50: > 10 µM
Second compound 0.03 µM
  IC50: > 10 µM
Second compound 0.0949 µM
  IC50: > 10 µM
Second compound 0.3 µM
  IC50: 7.88 µM
[1]
  viability, T/C: 91.6%
[2]
  viability, T/C: 94.3%
[3]
  viability, T/C: 99.9%
[4]
  viability, T/C: 90.7%
[5]
  viability, T/C: 101%
[6]
  viability, T/C: 70.9%
[7]
  viability, T/C: 95%
[8]
  viability, T/C: 88.7%
[9]
  viability, T/C: 90.4%
[10]
  viability, T/C: 90.9%
[11]
  viability, T/C: 97.9%
[12]
  viability, T/C: 67.8%
[13]
  viability, T/C: 99%
[14]
  viability, T/C: 106%
[15]
  viability, T/C: 101%
[16]
  viability, T/C: 87.2%
[17]
  viability, T/C: 89%
[18]
  viability, T/C: 74.3%
[19]
  viability, T/C: 103%
[20]
  viability, T/C: 100%
[21]
  viability, T/C: 101%
[22]
  viability, T/C: 96.6%
[23]
  viability, T/C: 95.1%
[24]
  viability, T/C: 63.8%
[25]
  viability, T/C: 82.9%
[26]
  viability, T/C: 87.2%
[27]
  viability, T/C: 97.7%
[28]
  viability, T/C: 91.1%
[29]
  viability, T/C: 84.8%
[30]
  viability, T/C: 55.4%
[31]
  viability, T/C: 73.3%
[32]
  viability, T/C: 77.6%
[33]
  viability, T/C: 67.9%
[34]
  viability, T/C: 72.9%
[35]
  viability, T/C: 72.6%
[36]
  viability, T/C: 44.1%

## Nc1ccn(C2OC(CO)C(O)C2(F)F)c(=O)n1 (stereo unspecified) + CCn1c(-c2cccnc2C(C)OC)c2c3cc(ccc31)N1CCOC(CC(NC(=O)C(C(C)C)N(C)C(=O)C3(F)CCN(C(=O)C#CC(C)(C)N(C)C)CC3)C(=O)N3CCCC(N3)C(=O)OCC(C)(C)C2)C1
Second compound 0.000949 µM
  IC50: 0.00676 µM
Second compound 0.003 µM
  IC50: 0.00719 µM
Second compound 0.00949 µM
  IC50: 0.0067 µM
Second compound 0.03 µM
  IC50: 0.00602 µM
Second compound 0.0949 µM
  IC50: 0.00571 µM
Second compound 0.3 µM
  IC50: 0.00359 µM
Second compound 0.000949 µM, first compound 0.00316 µM
  viability, T/C: 92.8%
Second compound 0.000949 µM, first compound 0.01 µM
  viability, T/C: 27.9%
[1]
  viability, T/C: 5.77%
[2]
  viability, T/C: 4.12%
[3]
  viability, T/C: 5.73%
[4]
  viability, T/C: 5.16%
Second compound 0.003 µM, first compound 0.00316 µM
  viability, T/C: 100%
Second compound 0.003 µM, first compound 0.01 µM
  viability, T/C: 29.9%
[7]
  viability, T/C: 6.22%
[8]
  viability, T/C: 5.43%
[9]
  viability, T/C: 4.28%
[10]
  viability, T/C: 4.09%
Second compound 0.00949 µM, first compound 0.00316 µM
  viability, T/C: 95.7%
Second compound 0.00949 µM, first compound 0.01 µM
  viability, T/C: 25.6%
[13]
  viability, T/C: 5.43%
[14]
  viability, T/C: 3.4%
[15]
  viability, T/C: 4.91%
[16]
  viability, T/C: 4.53%
Second compound 0.03 µM, first compound 0.00316 µM
  viability, T/C: 86.8%
Second compound 0.03 µM, first compound 0.01 µM
  viability, T/C: 21%
[19]
  viability, T/C: 4.86%
[20]
  viability, T/C: 4.53%
[21]
  viability, T/C: 4.23%
[22]
  viability, T/C: 3.48%
Second compound 0.0949 µM, first compound 0.00316 µM
  viability, T/C: 86%
Second compound 0.0949 µM, first compound 0.01 µM
  viability, T/C: 15.7%
[25]
  viability, T/C: 4.15%
[26]
  viability, T/C: 3.36%
[27]
  viability, T/C: 3.77%
[28]
  viability, T/C: 4.54%
Second compound 0.3 µM, first compound 0.00316 µM
  viability, T/C: 54.6%
Second compound 0.3 µM, first compound 0.01 µM
  viability, T/C: 12.4%
[31]
  viability, T/C: 3.88%
[32]
  viability, T/C: 3.1%
[33]
  viability, T/C: 3.62%
[34]
  viability, T/C: 2.98%

From PubChem BioAssay AID2060882 (Molecular Pharmacology Branch, DTP, NCI, 2025)
